The text below walks through data of patent US20260297542A1, “HERBICIDE RESISTANT PLANTS” (SYNGENTA CROP PROTECTION AG, priority 2023, published 2026).

Assay in all cases: E. coli hemG growth inhibition by herbicide, AtPPO1 variant
Common to all, as to type: cell-based
Conditions in all cases: read-out: percentage growth inhibition

One experiment addresses T1, AtPPO1 Y361D (Arabidopsis thaliana, UniProt P55826, Y361D).
T1 construct: expressed in transfected cells; host or cells: E. coli BL21(DE3) hemG (pET24a, T7 promoter)
T1 sequence (P55826 35-537 Y361D): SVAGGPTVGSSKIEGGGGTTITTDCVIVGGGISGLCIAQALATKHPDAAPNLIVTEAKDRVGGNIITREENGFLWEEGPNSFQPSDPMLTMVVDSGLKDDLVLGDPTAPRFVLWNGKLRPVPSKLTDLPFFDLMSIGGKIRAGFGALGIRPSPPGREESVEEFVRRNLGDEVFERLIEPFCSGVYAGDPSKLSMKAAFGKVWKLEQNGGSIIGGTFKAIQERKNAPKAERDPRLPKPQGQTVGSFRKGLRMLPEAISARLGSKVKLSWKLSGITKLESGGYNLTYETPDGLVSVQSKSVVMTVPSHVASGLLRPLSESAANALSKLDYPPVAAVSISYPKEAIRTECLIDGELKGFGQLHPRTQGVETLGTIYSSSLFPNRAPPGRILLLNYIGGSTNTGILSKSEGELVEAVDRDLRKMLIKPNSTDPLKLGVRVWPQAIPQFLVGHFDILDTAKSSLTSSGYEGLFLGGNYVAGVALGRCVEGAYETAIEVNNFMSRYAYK
The essentials:
(§1)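 Variant plasmids were transformed into hemG-null BL21(DE3) and precultured 24 h with hematin. Washed cells were diluted 1:100 into Terrific broth containing 0.1 mM IPTG and herbicide (6.25 ppm 0 or E; 0.78 ppm B) or DMSO. After 24 h at 37° C, OD600 gave percent inhibition.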

For another experiment, the target named is T2, AtPPO1 K281C (Arabidopsis thaliana, UniProt P55826, K281C).
T2 construct: expressed in transfected cells; host or cells: E. coli BL21(DE3) hemG (hemG replaced by CmR), pET24a plasmid
T2 sequence (P55826 35-537 K281C): T1 sequence (P55826 35-537 Y361D) with K247C, D327Y
The essentials:
as §1

The next experiment has as its target T3, AtPPO1 L479N (Arabidopsis thaliana, UniProt P55826, L479N).
T3 construct: expressed in transfected cells; host or cells: E. coli BL21(DE3) hemG, pET24a plasmid
T3 sequence (P55826 35-537 L479N): T1 sequence (P55826 35-537 Y361D) with D327Y, L445N
The essentials:
as §1

Another experiment addresses T4, AtPPO1 F207Y (Arabidopsis thaliana, UniProt P55826, F207Y).
T4 construct: expressed in transfected cells; host or cells: E. coli BL21(DE3) hemG (hemG replaced by CmR), pET24a plasmid
T4 sequence (P55826 35-537 F207Y): T1 sequence (P55826 35-537 Y361D) with F173Y, D327Y
The essentials: as §1

Residue numbers refer to the chain shown, from its start.

Regarding `C#CCN1C(=O)C(F)(F)Oc2cc(F)c(-n3c(=O)n(C)c(=S)n(C)c3=O)cc21` [Herbicide B, trifludimoxazin], the inhibition – broadly, the drop in the measured response relative to a control, in per cent – at 0.78 ppm was 20% on AtPPO1 Y361D, 35% at AtPPO1 K281C, 23% at AtPPO1 L479N and 29% at AtPPO1 F207Y.
On to `CCOC(=O)[C@]1(C)CC(c2cc(-n3c(=O)n(C)c(=S)n(C)c3=O)c(F)cc2Cl)=NO1` [Herbicide D, ethyl (5S)-3-[2-chloro-5-(3,5-dimethyl-2,6-dioxo-4-thioxo-1,3,5-triazinan-1-yl)-4-fluoro-phenyl]-5-methyl-4H-isoxazole-5-carboxylate], for which the inhibition at 6.25 ppm was determined as 33% on AtPPO1 Y361D, 33% at AtPPO1 K281C, 3% at AtPPO1 L479N and 19% on AtPPO1 F207Y.
Consider `CC(C)N(C)S(=O)(=O)NC(=O)c1cc(-n2c(=O)cc(C(F)(F)F)n(C)c2=O)c(F)cc1Cl` [Herbicide E, saflufenacil], for which the inhibition at 6.25 ppm was found to be 14% at AtPPO1 Y361D, 54% on AtPPO1 K281C, 31% at AtPPO1 L479N and 66% on AtPPO1 F207Y.
